Data reported in article PMC4713045 (Cancer research, 2015).
Like-named read-outs stand apart in the source and are kept apart here.

What was measured:
[1] = test system: Human primary keratinocytes (HEKa); assay: HEKa cell viability
TAK1 = biological target: T1, TAK1 (Homo sapiens, UniProt O43318); assay: KiNativ in situ kinome profiling in HEKa, TAK1; assay type: binding; conditions: intact HEKa, 1 hr treatment, clinically-achievable concentration
T1 sequence (O43318 1-606): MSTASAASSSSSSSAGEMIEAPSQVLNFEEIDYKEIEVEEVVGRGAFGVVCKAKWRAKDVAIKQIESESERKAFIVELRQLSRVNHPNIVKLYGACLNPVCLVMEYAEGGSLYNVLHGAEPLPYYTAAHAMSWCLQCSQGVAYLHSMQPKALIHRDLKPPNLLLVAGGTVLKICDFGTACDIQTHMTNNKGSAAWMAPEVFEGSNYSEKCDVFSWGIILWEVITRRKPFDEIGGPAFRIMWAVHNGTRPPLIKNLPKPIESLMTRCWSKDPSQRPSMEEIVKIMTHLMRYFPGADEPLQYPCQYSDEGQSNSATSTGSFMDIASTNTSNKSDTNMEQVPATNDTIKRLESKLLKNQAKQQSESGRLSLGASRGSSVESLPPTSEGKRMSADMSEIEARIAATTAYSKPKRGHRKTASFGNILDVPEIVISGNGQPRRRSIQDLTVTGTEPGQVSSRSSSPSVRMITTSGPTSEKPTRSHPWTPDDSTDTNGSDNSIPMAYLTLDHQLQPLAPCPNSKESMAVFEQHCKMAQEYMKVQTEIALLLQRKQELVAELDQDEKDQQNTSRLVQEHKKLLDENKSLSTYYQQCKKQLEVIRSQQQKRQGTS

[2] = test system: sorafenib uptake in HEKa (OATs; SLC22A); assay: Inhibition of sorafenib uptake in HEKa by transporter inhibitors; assay type: cell-based, human; conditions: OAT inhibitors 100 µM, sorafenib 1 µM, 15 min
[3] = test system: A549, 7860, HepG2 and CHRF288-11 cell lines; assay: In vitro antitumor efficacy of sorafenib with or without probenecid; assay type: cell-based, human; conditions: probenecid 500 µM, sorafenib 0.1 – 100 µM, 72 hours
[4] = test system: sorafenib accumulation in MPEK; assay: Inhibition of sorafenib accumulation in MPEK by probenecid; assay type: cell-based, mouse; conditions: probenecid 100 µM, sorafenib 1 µM, 15 min
HEKa = assay: In vitro transport assay: intracellular drug accumulation in HEKa; assay type: in vitro ADME, human; conditions: for intracellular accumulation / transport in HEKa (in words): kinase inhibitors 1 µM, 5 min
[5] = Plasma pharmacokinetic study of sorafenib; assay type: in vivo, C57BL6 mice; conditions: sorafenib 60 mg/kg oral, single agent, 0 to 6 hours
[6] = test system: hair follicle growth in mice after depilation; assay: Wax-depilation hair follicle regrowth study; assay type: in vivo, C57BL6 mice; conditions: twice daily oral
[7] = cited from earlier work

COc1cc(O)c2c(c1)/C=C/C[C@H](O)[C@H](O)C(=O)/C=C\C[C@H](C)OC2=O [(5z)-7-oxozeaenol]
cell viability / cytotoxicity against HEKa (in words) ([1]; HEKa, 72 h): dose-dependently reduced cell viability

Cc1nc(Nc2ncc(C(=O)Nc3c(C)cccc3Cl)s2)cc(N2CCN(CCO)CC2)n1 [dasatinib]
affinity for TAK1 in HEKa by in situ kinome profiling (in words) (TAK1): low affinity

C[N+]1(C)CCOC(O)(c2ccc(-c3ccc(C4(O)C[N+](C)(C)CCO4)cc3)cc2)C1.[Br-].[Br-] (centres unmarked) [hemicholinum-3]
sensitivity of sorafenib uptake to inhibitor [2]: sensitivity of sorafenib uptake

COc1cc(CC(=O)O)ccc1O [homovanillic acid]
sensitivity of sorafenib uptake to inhibitor [2]: sensitivity of sorafenib uptake

Cc1ccc(NC(=O)c2ccc(CN3CCN(C)CC3)cc2)cc1Nc1nccc(-c2cccnc2)n1 [imatinib]
cell viability / cytotoxicity against HEKa (in words) ([1]; HEKa, 72 h): not sensitive

CCCN(CCC)S(=O)(=O)c1ccc(C(=O)O)cc1 [probenecid]
influence of probenecid on cytotoxic effects of sorafenib [3]: did not antagonize the cytotoxic effects of sorafenib | sensitivity of sorafenib uptake to inhibitor [2]: sensitivity of sorafenib uptake | sensitivity of sorafenib accumulation to probenecid [4]: sensitive to probenecid

CNC(=O)c1cc(Oc2ccc(NC(=O)Nc3ccc(Cl)c(C(F)(F)F)c3)cc2)cc[n+]1[O-] [sorafenib N-oxide]
intracellular accumulation / transport in HEKa (in words) (HEKa): temperature- and time-dependent transport | cell viability / cytotoxicity against HEKa (in words) ([1]; HEKa, 72 h): cytotoxicity against HEKa

CNC(=O)c1cc(Oc2ccc(NC(=O)Nc3ccc(Cl)c(C(F)(F)F)c3)cc2)ccn1 [sorafenib]
maximum velocity (Vmax) of uptake (HEKa; HEKa uptake): 20,900 pmol/5min/mg protein | intracellular accumulation / transport in HEKa (in words) (HEKa): highly accumulates | Km (HEKa; read-out: Michaelis-Menten constant (Km) of uptake, HEKa uptake): 7 µM | area under the plasma concentration-time curve (mean ± SEM) [5]: 32500 ± 10900 ng·h/mL | hair follicle histology (day 14, H&E) ([6]; sorafenib 60 mg/kg): reduced melanin and a gross disruption in morphology | hair growth one week after depilation ([6]; sorafenib 60 mg/kg): hair growth was delayed | hair growth and pigmentation at two weeks ([6]; sorafenib 60 mg/kg or imatinib 100 mg/kg): hair was less dense and lacked pigmentation | permeability (in words) [7]: poorly permeable

CCN(CC)CCNC(=O)c1c(C)[nH]c(/C=C2\C(=O)Nc3ccc(F)cc32)c1C [sunitinib]
affinity for TAK1 in HEKa by in situ kinome profiling (in words) (TAK1): high affinity | cell viability / cytotoxicity against HEKa (in words) [1]: induces cytotoxicity against HEKa
